Laboratory results reported in ChEMBL document CHEMBL1770059, “Identification of chemicals to inhibit the kinase activity of leucine-rich repeat kinase 2 (LRRK2), a Parkinson's disease-associated protein” (Bioorg Med Chem Lett, 2011).

Assays:
[1] = target: T1, Serine/threonine-protein kinase TAO2 (Homo sapiens) (UniProt Q9UL54); assay: Inhibition of TAO2 assessed as residual activity of enzyme at 10 uM
T1 sequence (whole entry): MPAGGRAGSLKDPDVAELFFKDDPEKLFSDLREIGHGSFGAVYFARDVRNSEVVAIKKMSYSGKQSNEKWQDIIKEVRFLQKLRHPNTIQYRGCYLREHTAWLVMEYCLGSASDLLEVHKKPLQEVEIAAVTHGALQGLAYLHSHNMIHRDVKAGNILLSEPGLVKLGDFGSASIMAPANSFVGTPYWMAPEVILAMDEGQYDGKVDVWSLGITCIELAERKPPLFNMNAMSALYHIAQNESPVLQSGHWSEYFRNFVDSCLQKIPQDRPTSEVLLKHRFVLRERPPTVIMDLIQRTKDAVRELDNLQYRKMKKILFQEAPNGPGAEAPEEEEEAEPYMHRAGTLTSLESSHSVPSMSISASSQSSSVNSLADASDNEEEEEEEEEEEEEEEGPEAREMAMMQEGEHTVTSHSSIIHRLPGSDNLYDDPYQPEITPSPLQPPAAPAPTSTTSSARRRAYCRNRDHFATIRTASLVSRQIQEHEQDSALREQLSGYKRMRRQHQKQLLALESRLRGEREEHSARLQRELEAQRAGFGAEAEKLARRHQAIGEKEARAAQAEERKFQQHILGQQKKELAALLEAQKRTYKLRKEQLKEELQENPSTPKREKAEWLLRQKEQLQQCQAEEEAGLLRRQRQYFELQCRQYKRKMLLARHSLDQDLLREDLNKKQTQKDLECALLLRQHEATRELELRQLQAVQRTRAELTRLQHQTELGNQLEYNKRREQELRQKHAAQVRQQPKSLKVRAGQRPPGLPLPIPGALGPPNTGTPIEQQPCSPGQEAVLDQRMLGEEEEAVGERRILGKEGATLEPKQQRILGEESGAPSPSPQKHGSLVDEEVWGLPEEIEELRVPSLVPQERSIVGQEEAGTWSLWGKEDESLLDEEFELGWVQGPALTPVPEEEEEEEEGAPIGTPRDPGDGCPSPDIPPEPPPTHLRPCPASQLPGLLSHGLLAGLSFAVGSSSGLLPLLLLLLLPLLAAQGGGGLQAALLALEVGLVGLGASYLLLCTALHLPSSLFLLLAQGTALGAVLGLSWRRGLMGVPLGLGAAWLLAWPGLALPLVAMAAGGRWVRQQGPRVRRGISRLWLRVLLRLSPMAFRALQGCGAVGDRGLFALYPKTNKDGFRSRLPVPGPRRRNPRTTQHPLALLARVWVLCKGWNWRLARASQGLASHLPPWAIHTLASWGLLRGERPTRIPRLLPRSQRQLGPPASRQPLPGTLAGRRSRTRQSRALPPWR

[2] = target: T2, Mitogen-activated protein kinase kinase kinase 5 (Homo sapiens) (UniProt Q99683); assay: Inhibition of ASK1 assessed as residual activity of enzyme at 10 uM
T2 sequence (whole entry): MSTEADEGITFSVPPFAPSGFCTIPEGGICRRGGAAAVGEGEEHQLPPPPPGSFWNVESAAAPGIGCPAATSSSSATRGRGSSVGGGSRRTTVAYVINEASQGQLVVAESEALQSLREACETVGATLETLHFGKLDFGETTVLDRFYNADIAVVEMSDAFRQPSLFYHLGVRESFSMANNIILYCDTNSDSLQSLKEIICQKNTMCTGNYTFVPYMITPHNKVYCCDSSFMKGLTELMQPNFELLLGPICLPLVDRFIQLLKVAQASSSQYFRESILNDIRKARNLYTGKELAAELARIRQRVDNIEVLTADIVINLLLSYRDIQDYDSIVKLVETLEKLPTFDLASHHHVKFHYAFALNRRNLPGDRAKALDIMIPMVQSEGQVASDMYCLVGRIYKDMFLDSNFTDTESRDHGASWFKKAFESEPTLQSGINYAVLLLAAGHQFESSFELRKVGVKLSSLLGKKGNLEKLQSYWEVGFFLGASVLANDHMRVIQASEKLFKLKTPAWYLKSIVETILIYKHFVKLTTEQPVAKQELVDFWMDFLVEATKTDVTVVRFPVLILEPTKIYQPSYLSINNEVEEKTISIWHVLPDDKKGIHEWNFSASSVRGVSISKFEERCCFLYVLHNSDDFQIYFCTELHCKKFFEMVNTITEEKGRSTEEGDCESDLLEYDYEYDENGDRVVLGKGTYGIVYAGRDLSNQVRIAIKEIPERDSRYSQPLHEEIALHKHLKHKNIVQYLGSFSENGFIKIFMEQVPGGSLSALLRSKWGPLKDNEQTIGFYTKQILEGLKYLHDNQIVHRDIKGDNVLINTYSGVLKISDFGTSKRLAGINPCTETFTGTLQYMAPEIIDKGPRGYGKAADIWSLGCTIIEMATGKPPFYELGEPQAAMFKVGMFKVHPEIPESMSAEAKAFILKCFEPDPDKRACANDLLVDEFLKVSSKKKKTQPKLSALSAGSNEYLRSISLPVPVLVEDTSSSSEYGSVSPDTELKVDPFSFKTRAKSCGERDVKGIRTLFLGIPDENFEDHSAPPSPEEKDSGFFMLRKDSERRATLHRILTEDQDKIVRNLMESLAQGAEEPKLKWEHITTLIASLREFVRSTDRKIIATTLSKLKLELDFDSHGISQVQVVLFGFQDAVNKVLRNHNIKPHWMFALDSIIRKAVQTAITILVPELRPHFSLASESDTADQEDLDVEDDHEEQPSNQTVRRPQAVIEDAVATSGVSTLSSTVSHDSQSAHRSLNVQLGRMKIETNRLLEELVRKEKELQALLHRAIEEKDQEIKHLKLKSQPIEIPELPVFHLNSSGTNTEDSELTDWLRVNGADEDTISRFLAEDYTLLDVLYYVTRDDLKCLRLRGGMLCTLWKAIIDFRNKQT

[3] = target: Serine/threonine-protein kinase mTOR (Homo sapiens) (UniProt P42345); assay: Inhibition of mTOR assessed as residual activity of enzyme at 10 uM

Activity [1]: 89% | Activity [2]: 94% | Activity [3]: 103%
Compound: Cc1cc(N/N=C/c2ccncc2)nc2ccccc12
